The text below walks through data of PMC8354230 (Journal of Virology, 2021).

The term pEC50 denotes the EC50 on a negative log10 scale, so that one unit is a factor of ten.

pEC50: −log10 of the molar value. Read-outs that look alike come from different tables or passages of the source. A value given as a limit tells only on which side of the number the result lay.

The subject of data set [1] is SARS-CoV-2 S protein-mediated cell-cell fusion. The experiment in a line: microbe, parasite or virus in culture. The format is cell-based.
The subject of data set [2] is 293FT/ACE2/TMPRSS2/DSP1-7 cells. The following applies: 2 days; for cell viability: at concentrations above 40 µM; for concentration above which cytotoxicity was exhibited / CC50: WST-8; for CC50: 293FT/ACE2/TMPRSS2/DSP1-7 cells.
The nature of data set [3]: in vitro. The following applies: human.
The test system of data set [4] is HEK293FT cells expressing DSP1-7 and DSP8-11. The format is cell-based. The following applies: 2 days treatment.
The test system of data set [5] is 293FT/ACE2/TMPRSS2/DSP1-7 cells. Description: Quantification of sphingolipids by LC-MS/MS in 293FT/ACE2/TMPRSS2/DSP1-7 cells. The following applies: for reduction in total sphingolipid levels: 40 µM, vs DMSO. In kind it is cell-based.
Data set [6] has as its system VeroE6^TMPRSS2 cells. Description: WST-8 cytotoxicity assay in VeroE6^TMPRSS2 cells. The format is cell-based. The following applies: 3 days; for concentration above which cytotoxicity was exhibited: WST-8. (Tetrazolium dyes change colour on reduction, which living cells bring about.)
Data set [7] has as its system SARS-CoV-2 NCGM-05-2N strain. The experiment in a line: microbe, parasite or virus in culture. In kind it is cell-based.
Data set [8] relates to VeroE6^TMPRSS2 cells. The experiment in a line: Quantification of sphingolipids by LC-MS/MS in VeroE6^TMPRSS2 cells. In kind it is cell-based. The following applies: 3 days.
Data set [9] deals with 293FT/ACE2/TMPRSS2/DSP1-7 cells. Description: Cellular membrane fluidity with lipophilic pyrene probe. The format is cell-based. The following applies: for decrease in membrane fluidity: 2 days, compared with DMSO.
For data set [10], the system named is ACE2. The experiment in a line: Cell surface expression of ACE2 by flow cytometry. The following applies: 293FT/ACE2/TMPRSS2/DSP1-7 cells, 5 µM, compared with DMSO or 10 µM GT11. In kind it is cell-based.
The test system of data set [11] is ACE2. In kind it is cell-based. The following applies: 5 µM 4-HPR vs DMSO.
For data set [12] the following is noted: cited from earlier work.
Where [13] appears, read: Severe acute respiratory syndrome coronavirus 2, 48 h.

For `O[C@H]1[C@H](O)[C@@H](O)[C@@H]2O[C@@H]2[C@@H]1O` (racemic) [CBE, conduritol B epoxide], the antimembrane fusion activity entry in data set [1] is on record as “little or no antimembrane fusion activity”. This compound also had a pEC50 in data set [1] (setting [13]) of less than 4.40. The cell viability entry in data set [2] is “unaffected”. The compound also showed a CC50 in data set [3] greater than 40 µM.

As to `CC1=C(/C=C/C(C)=C/C=C/C(C)=C/C(=O)Nc2ccc(O)cc2)C(C)(C)CCC1` [4-HPR, N-(4-Hydroxyphenyl) retinamide], in [1], the “inhibition of DSP activity (cell-cell fusion)” value is recorded as “more than 50%”. Also, the pEC50 in [1] (setting [13]) is 5.39; in data set [7] (Severe acute respiratory syndrome coronavirus 2, VeroE6/TMPRSS2), 5.36. Moreover, the “luciferase activity in cells harboring preformed DSP1-7/DSP8-11 reporter complex” value in data set [4] is given as “not affected”. In addition, the “ratio of saturated sphinganine-based lipids to total sphingolipids” value in data set [5] (2.5 µM 4-HPR, 2 days) is reported as roughly 10%; in data set [5] (5 µM 4-HPR, 2 days), roughly 20%; in data set [8] (1.3 µM), 12%; in [8] (2.5 µM), 17%; in data set [8] (5 µM), 25%. Also, the “concentration above which cytotoxicity was exhibited” value in data set [6] and in [2] was “above 10 µM” in each case. Further, the antiviral activity entry in data set [7] is recorded as “no antiviral activity”. For the same compound, the “decrease in membrane fluidity” value is on record as roughly 20% in [9] (2.5 µM) and “about 50%” in data set [9] (5 µM). Further, in [10], the “ACE2 expression levels on cell surface” value was “No significant differences”. In addition, the “ACE2 localization in the membrane microdomain” value in data set [11] was “no dramatic difference”. Moreover, the “toxicity profile in clinical trials and long-term treatments” value in data set [12] is reported as “low-toxicity profile”. In addition, in [12] (oral powder, 1,500 mg/m^2 per day, patients with relapsed/refractory neuroblastoma), the “day 6 mean peak plasma concentration” value is reported as 21 µM. In data set [3], this compound showed a CC50 of 11.5 µM.

In the case of `CN(C)CCC=C1c2ccccc2CCc2ccccc21` [Amitriptyline], the antimembrane fusion activity result in data set [1] is listed as “little or no antimembrane fusion activity”. In data set [1] (setting [13]), this compound gave a pEC50 of less than 4.40. Besides, in data set [2], the cell viability entry is listed as “unaffected”. The compound also displayed a CC50 in data set [3] greater than 40 µM.

As to `CCCCCCCCCCCCC/C=C/[C@@H](O)[C@H](CO)NC(=O)CCCCCCC` [C8-Cer, N-Octanoyl-d-erythro-sphingosine], in data set [1], the cell-cell fusion efficiencies result is recorded as “no significant differences”. The “decrease in ratio of saturated sphinganine-based lipids to total sphingolipids” value in [5] (10 µM C8-Cer with 5 µM 4-HPR, compared to 4-HPR treated cells) is listed as “approximately 74%”.

Take `COc1ccc(/C=C/C(=O)c2c(-c3ccccc3)c3ccccc3[nH]c2=O)cc1` [Ceranib-2]: in data set [1], the pEC50 was less than 5.89 and the antimembrane fusion activity result is “little or no antimembrane fusion activity”. Also, in [2], the CC50 amounted to 26.9 µM and the “concentration above which cytotoxicity was exhibited” value was “above 2.5 µM”.

Take `CCCCCCCCc1ccc(CCC(N)(CO)CO)cc1` [FTY720]: in data set [1], the antimembrane fusion activity result is “little or no antimembrane fusion activity”. Besides, in [1] (setting [13]), the pEC50 was less than 5.30. The “concentration above which cytotoxicity was exhibited” value in data set [2] is “above 10 µM”. Further, the CC50 in data set [3] worked out at 12.5 µM.

Consider `CCCC[C@@H](C)[C@@H](OC(=O)C[C@@H](CC(=O)O)C(=O)O)[C@H](C[C@@H](C)C[C@H](O)CCCC[C@@H](O)C[C@H](O)[C@H](C)N)OC(=O)C[C@@H](CC(=O)O)C(=O)O` [Fumonisin B1], for which, in data set [1], the pEC50 was less than 4.40 and the antimembrane fusion activity result was “little or no antimembrane fusion activity”. For the same compound, the “reduction in total sphingolipid levels” value in data set [5] (2 days) is given as roughly 79%. In [2], the CC50 was greater than 40 µM and the cell viability result is given as “unaffected”.

Turning to `CCCCCCCCCCCCCC1=C([C@H](O)[C@@H](CO)NC(=O)CCCCCCC)C1` [GT11], in data set [1], the pEC50 is less than 5.00 and the antimembrane fusion activity result is listed as “little or no antimembrane fusion activity”. In addition, the “ratio of saturated sphinganine-based lipids to total sphingolipids” value in [5] (10 µM GT11, 2 days) was roughly 10%. The “concentration above which cytotoxicity was exhibited” value in data set [6] is recorded as “above 10 µM”. In addition, the antiviral activity entry in data set [7] is “no antiviral activity”. Further, in data set [9] (10 µM GT11 compared with 2.5 µM 4-HPR), the membrane fluidity entry is reported as “not significantly different”. For the same compound, in [2], the CC50 is 20.3 µM and the “concentration above which cytotoxicity was exhibited” value is listed as “above 20 µM”.

In the case of `O=C(/C=C/c1ccc(/C=C/C(=O)Nc2ccc(C3=NCCN3)cc2)cc1)Nc1ccc(C2=NCCN2)cc1` [GW4869], in data set [1], the pEC50 is less than 5.00 and the antimembrane fusion activity entry was “little or no antimembrane fusion activity”. In [2], the CC50 is greater than 40 µM and the “concentration above which cytotoxicity was exhibited” value is recorded as “above 20 µM”.

In the case of `CCCCCCCCCCCC(=O)N[C@@H](CO)C[C@H](O)c1ccccc1` [HPA12], in data set [1], the pEC50 is less than 4.40 and the antimembrane fusion activity entry is “little or no antimembrane fusion activity”. Further, in data set [2], the CC50 was greater than 40 µM and the cell viability entry is recorded as “unaffected”.

As for `CCCCCCC(=O)CCCCCC/C=C/C[C@@H](O)[C@H](O)[C@@](N)(CO)C(=O)O` [Myriocin], in data set [1], the antimembrane fusion activity result is “little or no antimembrane fusion activity”. The compound also had a negative-log EC50 (pEC50) in data set [1] (setting [13]) of less than 4.40. Besides, the results for the “reduction in total sphingolipid levels” value in data set [5] (2 days) and in data set [8] (vs DMSO) were “approximately 65%” and “approximately 50%”, respectively. For the same compound, the “effect on cell viability” value in data set [6] (at a concentration above 20 µM) is given as “no effect”. Further, the antiviral activity entry in [7] was “did not exhibit antiviral activity”. Besides, in data set [2], the cell viability result is given as “unaffected”. In [3], this compound displayed a CC50 greater than 40 µM.

Regarding `Oc1ccc(Nc2nc(-c3ccc(Cl)cc3)cs2)cc1` [SKI-II], in data set [1], the negative logarithm of the EC50 (pEC50) was less than 5.00 and the antimembrane fusion activity result is “little or no antimembrane fusion activity”. In addition, in [2], the CC50 was greater than 40 µM and the “concentration above which cytotoxicity was exhibited” value is on record as “above 20 µM”.

As for `CCCCCCCCCCCCCCCC(=O)NC(CN1CCOCC1)C(O)c1ccccc1` (stereo not drawn) [erythro-PPMP], the negative-log EC50 (pEC50) in data set [1] was 5.04. The “levels of GlcCer” value in [5] (10 µM, compared to DMSO-treated cells) is reported as “decreased”. This compound yielded a CC50 in data set [2] of 35.8 µM.

Regarding `CCCCCCCCCCCCCCCC(=O)NC(CN1CCOCC1)C(O)c1ccccc1` (stereo not drawn) [threo-PPMP, 1-phenyl-2-palmitoylamino-3-morpholino-1-propanol], in [1], the “inhibition of DSP activity (cell-cell fusion)” value is “more than 50%”. This compound showed a pEC50 in data set [1] (setting [13]) of 5.06. For the same compound, the “luciferase activity in cells harboring preformed DSP1-7/DSP8-11 reporter complex” value in data set [4] is listed as “not affected”. In addition, the “concentration above which cytotoxicity was exhibited” value in data set [6] and in [2] was “above 20 µM” throughout. Further, the antiviral activity result in data set [7] is recorded as “did not exhibit antiviral activity”. For the same compound, the “reduction in total GlcCer levels” value in [8] (compared to DMSO) is “approximately 60%”. In addition, the CC50 in [3] was 25.6 µM.
